Assay results: patent US20040087543A1, “Methods and products for mucosal delivery” (priority 2002, published 2004)
Read-outs that look alike come from different tables or passages of the source.

Settings: rabbit, in vivo, sc
Experimental: For the rabbit model, 2.5-3 kg New Zealand male rabbits were used with 3 rabbits per group. Rabbits were allowed to adapt for 7 days and free access to water and food. Ketamine (40 mg/kg) and Xylazine (5 mg/kg) were used to anesthetize the rabbits. To withdraw blood samples, a 24-gauze Teflon catheter was inserted into the center auricular artery. The catheter was connected to a heparin cap filled with 0.9% saline solution.
Enoxaparin at doses of 3 and 6 mg/kg was given by subcutaneous injection at time 0. Blood samples were collected 0, 3, 5, 10, 15, 30 min, 1, 2, 3, 4, 6, 8, 12 hours after subcutaneous injection and processed as described above. The plasma was collected at indicated times and analyzed for anti-Xa assay as described. Enoxaparin for subcutaneous injection was formulated as a solution in PBS or water at 100 mg/ml concentration and appropriate doses were injected.
An anti-Xa assay was used to monitor plasma LMWH levels. The anti-Xa assay was performed using a modification of the amidolytic method of Teien and Lie (Thrombosis res. 10: 399-410, 1977) with the Coatest heparin test kit by using S-2222 as the chromogenic substrate (Diapharma Group, Inc. OH). […] The concentration of enoxaparin in unknown samples was calculated by comparing readings to the calibration curve which was linear in the range of 0.1-0.7 IU/ml.
Experimental data, expressed in anti-Xa IU/mL, was utilized for non-linear regression curves based on a one-compartment model (Comelli and Fareed, Semin thromb Hemost, 25: 57-61, 1999) by using SigmaPlot program with the method of extended least squares. From the kinetic curves, the following parameters were calculated: the area under curve (AUC expressed in IU*hr*ml^−1), absorption half-life (t1/2 expressed in hr); and half-life of apparent elimination (t1/2e expressed in hr). The AUC (0-t) was calculated using the trapezoidal rule (Rowland and Tozer, Clinical Pharmacokinetics. Concepts and Applications. 459-461, Lea and Febiger, 1989) and extrapolated to infinity (AUC) by dividing the value of the last measured concentration by the elimination rate constant.

For dalteparin, the absorption half-life was 1 to 2 h, the “AUC (IU*hr/mL)” value (3 mg/kg) was 6.93 IU*hr/mL and the Ka (3 mg/kg) was 0.40. For the same substance, the Ke (3 mg/kg) was 0.33 h⁻¹, the MRT (AUMC/AUC) (3 mg/kg) was 4.97 h and the “AUC (IU*hr/mL)” value (6 mg/kg) was 13.27 IU*hr/mL. For the same substance, the Ka (6 mg/kg) was 0.32, the Ke (6 mg/kg) was 0.27 h⁻¹ and the MRT (AUMC/AUC) (6 mg/kg) was 5.93 h.

With enoxaparin the absorption half-life was 1 to 2 h, the “AUC (IU*hr/mL)” value (3 mg/kg) was 6.27 IU * hr/mL and the Ka (3 mg/kg) was 0.40. The Ke (3 mg/kg) was 0.35 h⁻¹, the MRT (AUMC/AUC) (3 mg/kg) was 4.75 h and the “AUC (IU*hr/mL)” value (6 mg/kg) was 13.45 IU * hr/mL. For the same substance, the Ka (6 mg/kg) was 0.35, the Ke (6 mg/kg) was 0.3 h⁻¹ and the MRT (AUMC/AUC) (6 mg/kg) was 5.48 h.
